# Measured values published in ChEMBL document CHEMBL1201862, “PubChem BioAssay data set” (2004).
#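 Cells were grown in 96-well plates and exposed to each compound for 48 hours at five concentrations; endpoints were interpolated linearly between bracketing concentrations, or set to the highest concentration if not reached. The concentration for 50% growth inhibition is given as GI50.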 Active and inactive are the calls of the source. Rule as the data show it: active = GI50 up to about 1.1 µM and inactive = higher.
# What was measured:
# Assay in all cases: NCI-60 cell line screen, 48 h
# [1] = test system: HT-29
# [2] = test system: OVCAR-4
# [3] = test system: SK-OV-3
# [4] = test system: NCI-H522
# [5] = test system: COLO 205
# [6] = test system: HOP-62
# [7] = test system: Malme-3M
# [8] = test system: ACHN
# [9] = test system: HCT-116
# [10] = test system: NCI-H23
# [11] = test system: DU-145
# [12] = test system: A498
# [13] = test system: SN12C
# [14] = test system: CAKI-1
# [15] = test system: HOP-92
# [16] = test system: HCT-15
# [17] = test system: HL-60
# [18] = test system: SNB-19
# [19] = test system: PC-3
# [20] = test system: Hs-578T
# [21] = test system: RXF 393
# [22] = test system: OVCAR-5
# [23] = test system: SW-620
# [24] = test system: NCI/ADR-RES
# [25] = test system: BT-549
# [26] = test system: SF-268
# [27] = test system: MDA-N
# [28] = test system: SK-MEL-28
# [29] = test system: LOX IMVI
# [30] = test system: NCI-H226
# [31] = test system: UACC-62
# [32] = test system: IGROV-1
# [33] = test system: U-251
# [34] = test system: K562
# [35] = test system: T47D
# [36] = test system: SF-295
# [37] = test system: M14
# [38] = test system: SK-MEL-5
# [39] = test system: SNB-75
# [40] = test system: 786-0
# [41] = test system: RPMI-8226
# [42] = test system: UO-31
# [43] = test system: MCF7
# [44] = test system: SR
# [45] = test system: SK-MEL-2
# [46] = test system: MOLT-4
# [47] = test system: UACC-257
# [48] = test system: CCRF-CEM
# [49] = test system: TK-10
# [50] = test system: MDA-MB-435
# [51] = test system: OVCAR-8
# [52] = test system: A549
# [53] = test system: EKVX
# [54] = test system: MDA-MB-231
# [55] = test system: KM12
# [56] = test system: OVCAR-3
# [57] = test system: SF-539
# [58] = test system: NCI-H460
smiles,measurement,setting,value
COc1ccc(-c2nc(O)c3ccccc3n2)cc1,GI50,[1],> 100 µM (inactive)
same,GI50,[2],26.9 µM (inactive)
same,GI50,[3],> 100 µM (inactive)
same,GI50,[4],52.7 µM (inactive)
same,GI50,[5],> 100 µM (inactive)
same,GI50,[6],> 100 µM (inactive)
same,GI50,[7],> 100 µM (inactive)
same,GI50,[8],> 10 µM (inactive)
same,GI50,[9],77.1 µM (inactive)
same,GI50,[10],87.5 µM (inactive)
same,GI50,[11],> 100 µM (inactive)
same,GI50,[12],47 µM (inactive)
same,GI50,[13],61.2 µM (inactive)
same,GI50,[14],76.6 µM (inactive)
same,GI50,[15],> 100 µM (inactive)
same,GI50,[16],43.1 µM
same,GI50,[17],> 100 µM (inactive)
same,GI50,[18],> 100 µM (inactive)
same,GI50,[19],> 100 µM (inactive)
same,GI50,[20],2.44 µM (inactive)
same,GI50,[21],> 100 µM (inactive)
same,GI50,[22],> 100 µM (inactive)
same,GI50,[23],> 100 µM (inactive)
same,GI50,[24],27.1 µM (inactive)
same,GI50,[25],83.9 µM (inactive)
same,GI50,[26],> 100 µM (inactive)
same,GI50,[27],> 100 µM (inactive)
same,GI50,[28],43.6 µM (inactive)
same,GI50,[29],39.8 µM (inactive)
same,GI50,[30],38.6 µM (inactive)
same,GI50,[31],71.1 µM (inactive)
same,GI50,[32],29.1 µM (inactive)
same,GI50,[33],24.8 µM (inactive)
same,GI50,[34],> 100 µM (inactive)
same,GI50,[35],84.5 µM (inactive)
same,GI50,[36],> 100 µM (inactive)
same,GI50,[37],> 100 µM (inactive)
same,GI50,[38],> 100 µM (inactive)
same,GI50,[39],40.4 µM (inactive)
same,GI50,[40],48.3 µM (inactive)
same,GI50,[41],> 100 µM (inactive)
same,GI50,[42],> 100 µM (inactive)
same,GI50,[43],35.9 µM (inactive)
same,GI50,[44],45.4 µM (inactive)
same,GI50,[45],> 100 µM (inactive)
same,GI50,[46],> 100 µM (inactive)
same,GI50,[47],> 100 µM (inactive)
same,GI50,[48],> 100 µM (inactive)
same,GI50,[49],> 100 µM (inactive)
same,GI50,[50],> 100 µM (inactive)
same,GI50,[51],32.4 µM (inactive)
same,GI50,[52],> 100 µM (inactive)
same,GI50,[53],> 100 µM (inactive)
same,GI50,[54],40.8 µM (inactive)
same,GI50,[55],> 100 µM (inactive)
same,GI50,[56],> 100 µM (inactive)
same,GI50,[57],45.9 µM (inactive)
O=[N+]([O-])c1cccc(-c2cn3c(n2)Cc2ccccc2C3)c1,GI50,[1],12.3 µM (inactive)
same,GI50,[2],> 100 µM (inactive)
same,GI50,[3],> 100 µM (inactive)
same,GI50,[4],34.4 µM (inactive)
same,GI50,[5],45.5 µM (inactive)
same,GI50,[6],29.1 µM (inactive)
same,GI50,[7],> 100 µM (inactive)
same,GI50,[8],> 100 µM (inactive)
same,GI50,[9],23.9 µM (inactive)
same,GI50,[10],59.6 µM (inactive)
same,GI50,[11],> 100 µM (inactive)
same,GI50,[12],16.9 µM (inactive)
same,GI50,[13],> 100 µM (inactive)
same,GI50,[14],15.6 µM (inactive)
same,GI50,[15],> 100 µM (inactive)
same,GI50,[16],> 100 µM
same,GI50,[17],> 100 µM (inactive)
same,GI50,[18],> 100 µM (inactive)
same,GI50,[19],77.4 µM (inactive)
same,GI50,[20],85.3 µM (inactive)
same,GI50,[21],> 100 µM (inactive)
same,GI50,[22],17.8 µM (inactive)
same,GI50,[23],> 100 µM (inactive)
same,GI50,[24],> 100 µM (inactive)
same,GI50,[25],> 100 µM (inactive)
same,GI50,[26],> 100 µM (inactive)
same,GI50,[27],50.8 µM (inactive)
same,GI50,[28],> 100 µM (inactive)
same,GI50,[29],39.8 µM (inactive)
same,GI50,[30],> 100 µM (inactive)
same,GI50,[31],53 µM (inactive)
same,GI50,[32],> 100 µM (inactive)
same,GI50,[58],85.7 µM (inactive)
same,GI50,[33],39.7 µM (inactive)
same,GI50,[34],> 100 µM (inactive)
same,GI50,[35],17.1 µM (inactive)
same,GI50,[36],78.5 µM (inactive)
same,GI50,[37],42.4 µM (inactive)
same,GI50,[38],28.6 µM (inactive)
same,GI50,[39],> 100 µM (inactive)
same,GI50,[40],> 100 µM (inactive)
same,GI50,[42],51.2 µM (inactive)
same,GI50,[43],3.88 µM (inactive)
same,GI50,[44],51.4 µM (inactive)
same,GI50,[45],34.9 µM (inactive)
same,GI50,[46],9.68 µM (inactive)
same,GI50,[47],87.3 µM (inactive)
same,GI50,[48],15.9 µM (inactive)
same,GI50,[49],> 100 µM (inactive)
same,GI50,[50],83.4 µM (inactive)
same,GI50,[51],99.1 µM (inactive)
same,GI50,[52],64.1 µM (inactive)
same,GI50,[53],90.2 µM (inactive)
same,GI50,[54],18.8 µM (inactive)
same,GI50,[55],24.9 µM (inactive)
same,GI50,[57],57.4 µM (inactive)
